Molecules are shown by their SMILES.

Series [1] relates to Renca cancer cells. Briefly: Survival of mice with renal cancer (Renca cells, intraperitoneal model). Type of series: in vivo, male BALB/cAnNRJ mice. The text has this:
(§1) All mice were purchased from Janvier Labs® (France). Male BALB/cAnNRJ mice were used for the renal cancer model (Renca cells, intraperitoneal model). Female BALB/cAnNRJ mice were used for the colon cancer models (CT26WT cells, intraperitoneal and intravenous models), and for the triple negative breast cancer model (4T1 cells, intravenous model). Female C57BL/6J mice were used for the lung cancer model (LLc1 cells, intravenous model) and for the melanoma model (B16-F10 cells, intravenous model). All mice were 12 weeks or older at the beginning of the experiments. Treatments started 8 days after the injection of the cancer cells for the 4T1 breast cancer model and for the Renca renal cancer model (when the number of injected cells was 100.000). Treatments started 7 days after the injection for the Renca cancer model when the number of inoculated cells was 150.000, and for the LLc1 lung cancer model. Treatments started 4 days after the injection in the CT26WT colon cancer models (intraperitoneal and intravenous) and in the B16-F10 melanoma model.
(§2) Murine cells (5th-7th passage) were cultured in 75-cm2 flask. When the cells were approximately 60-70% confluent, medium was removed and cells were washed twice with sterile PBS. Then, cells were incubated with trypsin/EDTA solution for 2-3 min at 37° C. to allow cells to have a rounded shape but without detaching. Next, trypsin/EDTA solution was aspirated, cells were resuspended in 5 mL sterile PBS and the cell suspension was pipetted up and down to break up any cell aggregate before adding 10% FBS supplemented medium. Then, a working cell suspension (between 5×10^5-25×10^6 cells/mL depending on cancer model) was prepared. This suspension was centrifuged (5 min, 250 g) at room temperature. Medium was removed and cells were resuspended in warm 2.5% FBS supplemented medium. The working cell suspension was aliquoted into 2 mL tubes and they were kept at 37° C. in a humidified atmosphere containing 5% CO2 until use. Several minutes before the injection, tubes were centrifuged at 300 g 4° C. for 3 min, medium was removed and cells were resuspended in sterile PBS. Cells were counted again. Finally, a 1-mL syringe (insulin type with a 29-G×½″ needle) was filled with 0.2 mL of the working cell suspension, which was injected in the peritoneal cavity or in the tail vein of the mice. After inoculating the last mice, the cells in the last tube were placed in a flask and monitored during several weeks under the microscope to ensure that all mice were inoculated with viable cells.
(§3) One day before the start of the treatments, mice were housed in individual cages to avoid cannibalism. […] Animals were monitored daily and body weights were determined periodically (at least three times per week). […]

In series [2] the test system is CT26.WT cancer cells. The series is described as follows: Survival of mice with colon cancer (CT26.WT cells, intraperitoneal model). In kind it is in vivo, female BALB/cAnNRJ mice.
From the text: as §1
Murine cells (5th-7th passage) were cultured in 75-cm2 flask. When the cells were approximately 60-70% confluent, medium was removed and cells were washed twice with sterile PBS. Then, cells were incubated with trypsin/EDTA solution for 2-3 min at 37° C. to allow cells to have a rounded shape but without detaching. Next, trypsin/EDTA solution was aspirated, cells were resuspended in 5 mL sterile PBS and the cell suspension was pipetted up and down to break up any cell aggregate before adding 10% FBS supplemented medium. […] Cells were counted again. […] After inoculating the last mice, the cells in the last tube were placed in a flask and monitored during several weeks under the microscope to ensure that all mice were inoculated with viable cells.
as §3

Series [3] has as its system CT26.WT cancer cells. The series is described as follows: Survival of mice with colon cancer (CT26.WT cells, intravenous model). Type of series: in vivo, female BALB/cAnNRJ mice.
From the text: as §1, with “Treatments started 4 days after the injection in the CT26WT colon cancer models (intraperitoneal and intravenous) and in the B16-F10 melanoma model.” left out
(§4) Murine cells (5th-7th passage) were cultured in 75-cm2 flask. […] Cells were counted again. […] After inoculating the last mice, the cells in the last tube were placed in a flask and monitored during several weeks under the microscope to ensure that all mice were inoculated with viable cells.
as §3

For series [4], the system named is 4T1 cancer cells. The series is described as follows: Survival of mice with triple negative breast cancer (4T1 cells, intravenous model). Type of series: in vivo. Particulars: for mean survival (FIG. 4): 100,000 4T1 cells tail vein, treatment from day 8, diets 28 days, capecitabine 450 mg/kg/day oral cycles, cisplatin 5 mg/kg weekly x4 ip, control 26.1 days; for Survival improvement vs untreated mice (mean, days): Breast cancer, 4T1 cells, 100.000, tail vein injection (iv).
From the text: as §1, §2
One day before the start of the treatments, mice were housed in individual cages to avoid cannibalism. Treatments started four, seven or eight days (depending on the model) after injecting the cancer cells. Most treatments with the artificial diets lasted at least 4 weeks. Treatment with the artificial diets simply consisted of replacing their normal diet with an artificial diet in which the levels of specific AAs and lipids were manipulated. Sunitinib, and capecitabine were administered daily in the diet. Cisplatin and the anti-PD1 antibody were injected intraperitoneally. Animals were monitored daily and body weights were determined periodically (at least three times per week). […] Post-mortem examination was carried out to confirm the cause of death and to observe the extent of the disease. Autopsies confirmed the presence of tumors in all euthanized mice. […]

Series [5] relates to B16-F10 cells. The series is described as follows: Survival of mice with melanoma (B16-F10 cells, intravenous model). Type of series: in vivo, female C57BL/6J mice. Particulars: B16-F10 cells, 500.000, tail vein injection (iv), C57BL/6J mice.
From the text: as §1, with “Treatments started 4 days after the injection in the CT26WT colon cancer models (intraperitoneal and intravenous) and in the B16-F10 melanoma model.” left out
as §4, §3

Regarding `CCN(CC)CCNC(=O)c1c(C)[nH]c(/C=C2\C(=O)Nc3ccc(F)cc32)c1C` [Sunitinib, Sunitinib malate], in series [1] (100,000 Renca cells ip, treatment from day 8, P2 28 days, sunitinib 60 mg/kg/day 28 days oral, anti-PD1 250 μg ip x4, control 35.2 days), the “mean survival (FIG. 1)” value amounted to 62.2 days. Besides, the “Mean survival” value in series [1] (150,000 Renca cells ip, treatment from day 7, 28 days, 10 days normal diet, 21 more days, sunitinib 60 mg/kg/day oral, control 30.75) is given as 48 days. Also, the “Survival improvement vs. Control” value in series [1] (150,000 Renca cells ip, treatment from day 7, Table 4 experiment) worked out at 17.25 days. For the same molecule, the “Survival improvement vs untreated mice (mean, days)” value in series [1] (Renal cancer, renca cells, 100.000, intraperitoneal injection (ip)) is reported as “+20.4 days”.
As to `CCCCCOC(=O)Nc1nc(=O)n([C@@H]2O[C@H](C)[C@@H](O)[C@H]2O)cc1F` [Capecitabine], the “mean survival (FIG. 2)” value in series [2] (100,000 CT26.WT cells ip, treatment from day 4, P10 6 weeks, capecitabine 450 mg/kg/day oral cycles, control 24.6 days) was 27.7 days. Besides, the “days lived more than untreated mice” value in series [2] (100,000 CT26.WT cells ip, treatment from day 4, diets 6 weeks, capecitabine 450 mg/kg/day, 7-day treatment+7-day rest, oral) is 4.5 days. For the same molecule, the “Survival improvement vs untreated mice (mean, days)” value in series [2] (Colon cancer, CT26.WT cells, 10.000, intraperitoneal injection (ip)) is reported as “+7.6 days”; in series [3] (Colon cancer, CT26.WT cells, 10.000, tail vein injection (iv)) it was 0.0 days; in series [4], “+3.7 days”. In addition, the “mean survival (FIG. 3)” value in series [3] (100,000 CT26.WT cells tail vein, treatment from day 4, P6 28 days, capecitabine 450 mg/kg/day oral cycles, control 33.3 days) is 36.7 days. Besides, the “premature deaths by drug toxicity” value in series [4] (4T1 iv model, capecitabine 450 mg/kg/day, 7-day treatment+7-day rest, oral, n=10) is recorded as “two mice died prematurely by excessive drug toxicity”. The “mean survival (FIG. 4)” value in series [4] came to 24.2 days.
On to `N.N.[Cl][Pt][Cl]` [Cisplatin], for which, in series [4], the “mean survival (FIG. 4)” value is given as 33.6 days and the “Survival improvement vs untreated mice (mean, days)” value is listed as “+4.7 days”. Moreover, the “Survival improvement vs untreated mice (mean, days)” value in series [5] was “+3.5 days”.

The values above are taken from patent US20230329304A1, “METABOLIC THERAPY OF CANCER” (AMINOVITA S.L., priority 2020, published 2023).
